Reference: patent US12213959B2, “Use of 3-O-sulfamoyloxy-7β-methyl-d-homo-6-oxaestra-1,3,5(10),8(9)-tetraen-17a-one to treat breast cancer” (priority 2018, dated 2025)
Several values for one entry are separate records, joined by “and”; a condition that tells them apart may be missing. Identical values can stand only once. Marks after values point to notes of the source that are not given here.

Legend:
[1] = test system: breast tumours in FBV/N female mice, transgenic for HER-2/neu; test: Antitumour activity on breast tumours of HER-2/neu transgenic mice; format: in vivo; conditions: for Relative change of the average total volume of tumours to that of Day −1 (M): medicament 100.0 mg/kg daily i.g.
Procedure: The study was carried out on female FVB mice transgenic for HER-2/neu of the conventional category, the strain being obtained from the mouse bank Charles River Laboratories (Italy).
Duration of the administration course was 27-28 days.
The control groups were given the olive oil (placebo).
The macroscopically detectable tumor nodes were measured in the animals once per week during the weighing process.

[2] = test system: uterine body; test: Hormonal effects on the uterine body (uterine weight); format: in vivo, mice; conditions: for Uterine weight: end of observation
Procedure: The hormonal effects of the medicament on the uterine body was analyzed by comparing the uterine weight without uterine horns at the end of the observation period (Table 13).

[3] = test system: MCF-7 human cells culture (breast adenocarcinoma); test: Proliferative activity of MCF-7 cells; format: cell-based; conditions: 20 μg/ml
Procedure: The study analysis was carried out on an passaged MCF-7 human cells culture culture (breast adenocarcinoma). Normal human dermal fibroblasts (HDF) of early passages were used as a negative control.
The cells were cultivated in Carrel vials in DMEM/F12 medium (Biolot) with 1.0% of antibiotic-free fetal bovine embryonic serum (Biolot) added in the 5% CO2 atmosphere, at 37° C.
The cells were seeded on Carrel vials at 50×10^4 cells per flask. To study the proliferative activity of the cells under conditions of sulfatase inhibition, 24 hours after seeding the culture medium […], and then these tumor cell lines were incubated for various periods of time (24 to 72 hrs). The inhibitor was dissolved in DMSO. […] To exclude the cytotoxic effect of DMSO, a control sample comprising DMSO without sulfatase inhibitor was prepared.
To exclude nonspecific detrimental effects of the compounds, normal human skin fibroblasts were used. Then the cells were detached with the versene-trypsin solution (Biolot), plated onto Carrel vials containing a fresh complete culture medium. The cells were counted when untreated control cells reached the maximum cell density per unit of surface area of a culture flask (monolayer), and their number was set as 100%. The proliferative activity of all of the studied cell cultures exposed to sulfatase inhibitors was determined in triplicate.

[4] = medicament 20 mg/kg, vs Control-2, Day 0
[5] = medicament 20 mg/kg, vs Control-2, Day 7
[6] = medicament 20 mg/kg, vs Control-2, Day 14
[7] = medicament 20 mg/kg, vs Control-2, Day 21
[8] = medicament 20 mg/kg, vs Control-2, Day 28
[9] = medicament 100 mg/kg daily i.g., Day 0
[10] = medicament 100 mg/kg daily i.g., Day 7
[11] = medicament 100 mg/kg daily i.g., Day 14
[12] = medicament 100 mg/kg daily i.g., Day 21
[13] = medicament 100 mg/kg daily i.g., Day 28
[14] = medicament 100 mg/kg daily i.g., Day 28 vs Day 0
[15] = medicament 100 mg/kg, end of observation
[16] = medicament 100 mg/kg, vs Control-2, Day 0
[17] = medicament 100 mg/kg, vs Control-2, Day 7
[18] = medicament 100 mg/kg, vs Control-2, Day 14
[19] = medicament 100 mg/kg, vs Control-2, Day 21
[20] = medicament 100 mg/kg, vs Control-2, Day 28

With C[C@H]1Oc2cc(OS(N)(=O)=O)ccc2C2=C1[C@@H]1CCCC(=O)[C@@]1(C)CC2 [medicament, 3-O-sulfamoyloxy-7β-methyl-O-homo-6-oxaestra-1,3,5(10),8(9)-tetraen] the “volume of new tumours, less than the control (Control-2) value” ([1]; medicament 20 mg/kg, end of observation) was 32%, the “TGI (average total tumour volume)” value [1, 4] was −116% and the “TGI (average tumor volume)” value [1, 4] was −125%. For the same compound, the “TGI (average total tumour volume)” value [1, 5] was −114%, the “TGI (average tumor volume)” value [1, 5] was −115% and the “TGI (average total tumour volume)” value [1, 6] was −45%. For the same compound, the “TGI (average tumor volume)” value [1, 6] was −54%, the “TGI (average total tumour volume)” value [1, 7] was −19% and the “TGI (average tumor volume)” value [1, 7] was −26%. For the same compound, the “TGI (average total tumour volume)” value [1, 8] was 12%, the “TGI (average tumor volume)” value [1, 8] was 10% and the “Average volume of new tumours at the end of the observation period” value ([1]; medicament 100 mg/kg) was 0.18±0.04 cm^3 and 0.18 cm^3. For the same compound, the “Average total volume of tumours in mice (M)” value [1, 9] was 0.28 cm^3, the “Average volume of tumors existing at the beginning of the experiment (M)” value (“Average volume of tumors existing” below) [1, 9] was 0.13 cm^3 and the “Relative change of the average total volume of tumours to that of Day −1 (M)” value (shortened to “Relative change … (M)”) ([1]; Day 0) was 0%. The “Average total volume of tumours in mice (M)” value [1, 10] was 0.41 cm^3, the “Average volume of tumors existing” value [1, 10] was 0.19 cm^3 and the “Relative change … (M)” value ([1]; Day 7) was 42%. For the same compound, the “Average total volume of tumours in mice (M)” value [1, 11] was 0.59 cm^3, the “Average volume of tumors existing” value [1, 11] was 0.27 cm^3 and the “Relative change … (M)” value ([1]; Day 14) was 89* %. The “Average total volume of tumours in mice (M)” value [1, 12] was 0.81 cm^3, the “Average volume of tumors existing” value [1, 12] was 0.37 cm^3 and the “Relative change … (M)” value ([1]; Day 21) was 177*** %. The “Average total volume of tumours in mice (M)” value [1, 13] was 0.97* cm^3, the “Average volume of tumors existing” value [1, 13] was 0.44 cm^3 and the “Relative change … (M)” value ([1]; Day 28) was 269*** %. For the same compound, the “Average total tumour volume, % of change to the initial value” [1, 14] was 246%, the “Average tumor volume, % of change to the initial value” [1, 14] was 238% and the “Absolute number of new tumours” value [1, 15] was 19. For the same compound, the “frequency of stabilisations of tumours present at initiation of treatment” value [1, 15] was 9%, the “volume of new tumours, less than the control (Control-2) value” [1, 15] was 36% and the “TGI (average total tumour volume)” value [1, 16] was −47%. For the same compound, the “TGI (average tumor volume)” value [1, 16] was −63%, the “TGI (average total tumour volume)” value [1, 17] was −41% and the “TGI (average tumor volume)” value [1, 17] was −46%. For the same compound, the “TGI (average total tumour volume)” value [1, 18] was 9%, the “TGI (average tumor volume)” value [1, 18] was 4% and the “TGI (average total tumour volume)” value [1, 19] was 18%. For the same compound, the “TGI (average tumor volume)” value [1, 19] was 14%, the “TGI (average total tumour volume)” value [1, 20] was 30% and the “TGI (average tumor volume)” value [1, 20] was 28%. The “relative change in the total volume of tumours versus control groups” value ([1]; medicament 20 and 100 mg/kg) was “statistically significantly lower”, the “uterine weight differences as compared to the control group” value ([2]; dose range from 2.0 to 100 mg/kg) was “No statistically significant differences” and the Uterine weight ([2]; medicament 2 mg/kg, All mice) was 37 ± 6 MI. It also gave a Uterine weight ([2]; medicament 2 mg/kg, estrous cycle phase D) of 24 ± 7 MI, a Uterine weight ([2]; medicament 2 mg/kg, estrous cycle phase E) of 53 ± 3 MI and a Uterine weight ([2]; medicament 20 mg/kg, All mice) of 50 ± 4 MI. The Uterine weight ([2]; medicament 20 mg/kg, estrous cycle phase D) was 45 ± 13 MI, the Uterine weight ([2]; medicament 20 mg/kg, estrous cycle phase E) was 53 ± 4 MI and the Uterine weight ([2]; medicament 100 mg/kg, All mice) was 52 ± 5 MI. For the same compound, the Uterine weight ([2]; medicament 100 mg/kg, estrous cycle phase D) was 34 ± 13 MI, the Uterine weight ([2]; medicament 100 mg/kg, estrous cycle phase E) was 56 ± 5 MI and the uterotropic activity ([2]; mouse, in vivo) was “no uterotropic activity”. For the same compound, the “proliferation of MCF-7 tumour cells” value [3] was “completely blocks”.
